Here are results for 14 compounds from patent US9637483B2, “Heterocyclic compound” (TAKEDA PHARMACEUTICAL COMPANY LIMITED, priority 2013, dated 2017).

What all share (assay type): biochemical
For one experiment, the target named is T1, JAK2 (Homo sapiens, UniProt O60674).
T1 construct: purchased Invitrogen
Nature of the experiment: JAK2 enzyme inhibition test (LANCE method). To be noted: 1 μM test compound; for inhibition at 1 µM: read-out: JAK2 enzyme inhibitory activity (%, 1 μM). Summed up: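 TR-FRET (LANCE) read-out, ex 340/em 665 nm with 100 μs delay, after 1 hr room-temperature detection with europium anti-phosphotyrosine antibody and 20 mM EDTA. The preceding 1 hr kinase reaction combined JAK2, ULight-JAK1 substrate and ATP, added as 6 ng/mL, 300 nM and 45 μM solutions; enzyme-free wells defined 100% inhibition.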
On the technique in general: In TR-FRET formats the signal depends on donor and acceptor labels being close together.

Another experiment addresses T2, JAK3 (Homo sapiens, UniProt P52333).
T2 construct: purchased Invitrogen
T2 sequence (P52333 1-1124): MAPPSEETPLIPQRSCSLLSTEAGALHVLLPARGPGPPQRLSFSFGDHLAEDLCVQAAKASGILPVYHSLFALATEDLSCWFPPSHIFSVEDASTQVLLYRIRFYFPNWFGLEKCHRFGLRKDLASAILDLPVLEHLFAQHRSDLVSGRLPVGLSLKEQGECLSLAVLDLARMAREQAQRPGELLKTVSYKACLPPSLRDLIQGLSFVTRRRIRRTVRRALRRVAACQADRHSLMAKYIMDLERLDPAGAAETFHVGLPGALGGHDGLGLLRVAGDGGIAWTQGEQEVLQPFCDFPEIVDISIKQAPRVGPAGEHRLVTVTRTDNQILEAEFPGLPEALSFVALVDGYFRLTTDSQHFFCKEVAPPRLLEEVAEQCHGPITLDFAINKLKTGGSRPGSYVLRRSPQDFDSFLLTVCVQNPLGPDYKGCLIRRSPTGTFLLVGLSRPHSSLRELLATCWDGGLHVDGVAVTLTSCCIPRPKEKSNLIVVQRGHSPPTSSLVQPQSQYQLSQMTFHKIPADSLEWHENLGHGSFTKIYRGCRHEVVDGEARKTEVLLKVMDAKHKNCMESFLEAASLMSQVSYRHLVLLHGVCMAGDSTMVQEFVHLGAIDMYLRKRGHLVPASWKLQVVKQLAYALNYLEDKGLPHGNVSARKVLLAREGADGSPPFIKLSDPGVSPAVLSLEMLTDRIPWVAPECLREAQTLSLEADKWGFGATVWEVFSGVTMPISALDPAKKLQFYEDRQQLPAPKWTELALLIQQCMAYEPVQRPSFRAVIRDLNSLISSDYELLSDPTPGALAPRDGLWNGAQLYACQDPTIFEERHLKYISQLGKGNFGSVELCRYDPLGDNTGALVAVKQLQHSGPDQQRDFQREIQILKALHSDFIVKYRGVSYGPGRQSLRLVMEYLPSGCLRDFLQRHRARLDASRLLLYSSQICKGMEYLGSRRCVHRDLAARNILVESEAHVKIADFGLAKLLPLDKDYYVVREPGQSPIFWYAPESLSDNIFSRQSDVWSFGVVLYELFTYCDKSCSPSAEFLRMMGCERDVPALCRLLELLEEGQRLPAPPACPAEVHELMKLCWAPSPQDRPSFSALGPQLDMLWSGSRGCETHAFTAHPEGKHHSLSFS
Nature of the experiment: JAK3 enzyme inhibition test (LANCE method). The settings on record: 1 μM test compound; for inhibition at 1 µM: read-out: JAK3 enzyme inhibitory activity (%, 1 μM). Summed up:
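TR-FRET (LANCE) read: 1 h room-temperature reaction, EDTA quench, Eu-anti-phosphotyrosine antibody, emission 665 nm after 340 nm excitation. Added solutions held 12 ng/mL JAK3, 300 nM ULight-JAK1 substrate and 15 μM ATP (pH 7.5 HEPES). Activity expressed against no-enzyme wells defined as full inhibition.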

The target in a further experiment is T3, TYK2 (Homo sapiens, UniProt P29597).
T3 construct: purchased Invitrogen
T3 sequence (P29597 whole entry): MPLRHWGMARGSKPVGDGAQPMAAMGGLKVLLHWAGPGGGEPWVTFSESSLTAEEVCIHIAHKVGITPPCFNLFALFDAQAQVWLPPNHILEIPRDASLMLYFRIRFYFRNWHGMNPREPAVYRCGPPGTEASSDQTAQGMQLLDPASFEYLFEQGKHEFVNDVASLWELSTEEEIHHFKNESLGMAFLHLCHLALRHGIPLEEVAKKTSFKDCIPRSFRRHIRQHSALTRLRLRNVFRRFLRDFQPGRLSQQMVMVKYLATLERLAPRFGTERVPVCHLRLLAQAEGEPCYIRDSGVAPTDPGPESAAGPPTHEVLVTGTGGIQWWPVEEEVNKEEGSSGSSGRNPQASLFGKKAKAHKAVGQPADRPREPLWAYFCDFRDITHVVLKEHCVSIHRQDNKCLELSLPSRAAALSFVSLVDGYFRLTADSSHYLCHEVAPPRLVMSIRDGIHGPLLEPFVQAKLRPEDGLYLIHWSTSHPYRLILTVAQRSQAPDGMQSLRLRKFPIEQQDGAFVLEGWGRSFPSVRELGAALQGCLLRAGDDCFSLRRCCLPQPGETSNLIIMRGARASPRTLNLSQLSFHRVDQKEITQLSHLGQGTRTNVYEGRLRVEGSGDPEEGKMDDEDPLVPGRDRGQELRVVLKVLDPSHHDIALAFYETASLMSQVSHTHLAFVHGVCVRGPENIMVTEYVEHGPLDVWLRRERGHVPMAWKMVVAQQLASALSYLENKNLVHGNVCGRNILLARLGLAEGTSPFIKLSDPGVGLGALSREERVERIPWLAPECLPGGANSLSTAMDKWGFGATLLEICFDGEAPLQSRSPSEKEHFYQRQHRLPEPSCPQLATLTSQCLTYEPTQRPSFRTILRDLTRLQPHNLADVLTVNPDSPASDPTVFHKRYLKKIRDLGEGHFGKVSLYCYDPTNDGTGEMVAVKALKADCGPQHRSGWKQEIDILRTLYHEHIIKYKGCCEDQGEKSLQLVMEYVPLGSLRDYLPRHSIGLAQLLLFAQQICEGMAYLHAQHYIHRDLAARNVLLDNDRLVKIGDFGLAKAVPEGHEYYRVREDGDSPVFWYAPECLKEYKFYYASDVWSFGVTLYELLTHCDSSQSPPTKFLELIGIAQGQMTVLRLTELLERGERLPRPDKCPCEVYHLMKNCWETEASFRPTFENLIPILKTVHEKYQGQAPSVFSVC
Nature of the experiment: TYK2 enzyme inhibition test (LANCE method). To be noted: 1 μM test compound; for inhibition at 1 µM: read-out: TYK2 enzyme inhibitory activity (%, 1 μM). Summed up: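 TR-FRET (LANCE) readout: after 1 h room-temperature kinase reaction, EDTA plus 4 nM Eu-labelled anti-phosphotyrosine antibody added, signal at 665 nm (340 nm excitation). Reaction combined TYK2, ULight-JAK1 substrate and ATP, prepared at 375 ng/mL, 300 nM and 30 μM before addition, in pH 7.5 HEPES/MgCl2 buffer; enzyme-free wells define full inhibition.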

The next experiment deals with T4, JAK1 (Homo sapiens, UniProt P23458).
T4 construct: purchased Invitrogen
T4 sequence (P23458 whole entry): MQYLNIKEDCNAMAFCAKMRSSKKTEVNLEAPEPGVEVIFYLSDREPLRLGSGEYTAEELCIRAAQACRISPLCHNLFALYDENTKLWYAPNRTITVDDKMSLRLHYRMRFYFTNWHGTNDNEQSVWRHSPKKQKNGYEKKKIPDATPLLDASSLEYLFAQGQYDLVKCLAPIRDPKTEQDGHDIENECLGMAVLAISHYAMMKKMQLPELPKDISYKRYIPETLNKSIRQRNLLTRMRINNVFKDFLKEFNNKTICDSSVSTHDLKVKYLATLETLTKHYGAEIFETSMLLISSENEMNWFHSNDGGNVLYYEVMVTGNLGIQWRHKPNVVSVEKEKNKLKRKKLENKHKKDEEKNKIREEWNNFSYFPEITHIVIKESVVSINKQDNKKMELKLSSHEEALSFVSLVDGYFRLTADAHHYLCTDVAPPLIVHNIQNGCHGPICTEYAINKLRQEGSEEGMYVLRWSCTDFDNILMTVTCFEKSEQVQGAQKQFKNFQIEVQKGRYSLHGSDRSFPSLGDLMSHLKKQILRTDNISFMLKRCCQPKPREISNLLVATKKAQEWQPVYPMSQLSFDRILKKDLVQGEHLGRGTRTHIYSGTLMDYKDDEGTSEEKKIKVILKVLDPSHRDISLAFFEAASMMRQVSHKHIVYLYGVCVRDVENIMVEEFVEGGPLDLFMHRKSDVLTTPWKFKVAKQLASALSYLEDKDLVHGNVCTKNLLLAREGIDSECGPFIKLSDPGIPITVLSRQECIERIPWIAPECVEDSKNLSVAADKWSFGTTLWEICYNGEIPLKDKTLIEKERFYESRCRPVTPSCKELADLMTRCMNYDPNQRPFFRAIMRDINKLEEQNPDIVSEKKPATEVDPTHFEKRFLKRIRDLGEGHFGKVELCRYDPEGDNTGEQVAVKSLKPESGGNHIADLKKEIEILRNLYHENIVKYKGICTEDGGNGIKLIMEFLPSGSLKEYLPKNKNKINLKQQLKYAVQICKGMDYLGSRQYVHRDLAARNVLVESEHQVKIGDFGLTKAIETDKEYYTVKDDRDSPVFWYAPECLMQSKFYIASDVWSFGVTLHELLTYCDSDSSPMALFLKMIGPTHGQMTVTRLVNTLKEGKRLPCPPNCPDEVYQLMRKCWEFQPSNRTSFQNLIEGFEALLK
The experiment in a line: JAK1 enzyme inhibition test (LANCE method). To be noted: 1 μM test compound; for inhibition at 1 µM: read-out: JAK1 enzyme inhibitory activity (%, 1 μM). Summed up: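 Inhibition expressed against no-enzyme wells (100% inhibition), from time-resolved fluorescence at 665 nm after Eu-anti-phosphotyrosine antibody/EDTA detection. Kinase reaction ran 1 h at room temperature, pH 7.5 HEPES buffer, ULight-JAK1 substrate and ATP diluted to 300 nM and 150 μM before addition.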

Each structure is given as a SMILES string.

T1 sequence (O60674 whole entry): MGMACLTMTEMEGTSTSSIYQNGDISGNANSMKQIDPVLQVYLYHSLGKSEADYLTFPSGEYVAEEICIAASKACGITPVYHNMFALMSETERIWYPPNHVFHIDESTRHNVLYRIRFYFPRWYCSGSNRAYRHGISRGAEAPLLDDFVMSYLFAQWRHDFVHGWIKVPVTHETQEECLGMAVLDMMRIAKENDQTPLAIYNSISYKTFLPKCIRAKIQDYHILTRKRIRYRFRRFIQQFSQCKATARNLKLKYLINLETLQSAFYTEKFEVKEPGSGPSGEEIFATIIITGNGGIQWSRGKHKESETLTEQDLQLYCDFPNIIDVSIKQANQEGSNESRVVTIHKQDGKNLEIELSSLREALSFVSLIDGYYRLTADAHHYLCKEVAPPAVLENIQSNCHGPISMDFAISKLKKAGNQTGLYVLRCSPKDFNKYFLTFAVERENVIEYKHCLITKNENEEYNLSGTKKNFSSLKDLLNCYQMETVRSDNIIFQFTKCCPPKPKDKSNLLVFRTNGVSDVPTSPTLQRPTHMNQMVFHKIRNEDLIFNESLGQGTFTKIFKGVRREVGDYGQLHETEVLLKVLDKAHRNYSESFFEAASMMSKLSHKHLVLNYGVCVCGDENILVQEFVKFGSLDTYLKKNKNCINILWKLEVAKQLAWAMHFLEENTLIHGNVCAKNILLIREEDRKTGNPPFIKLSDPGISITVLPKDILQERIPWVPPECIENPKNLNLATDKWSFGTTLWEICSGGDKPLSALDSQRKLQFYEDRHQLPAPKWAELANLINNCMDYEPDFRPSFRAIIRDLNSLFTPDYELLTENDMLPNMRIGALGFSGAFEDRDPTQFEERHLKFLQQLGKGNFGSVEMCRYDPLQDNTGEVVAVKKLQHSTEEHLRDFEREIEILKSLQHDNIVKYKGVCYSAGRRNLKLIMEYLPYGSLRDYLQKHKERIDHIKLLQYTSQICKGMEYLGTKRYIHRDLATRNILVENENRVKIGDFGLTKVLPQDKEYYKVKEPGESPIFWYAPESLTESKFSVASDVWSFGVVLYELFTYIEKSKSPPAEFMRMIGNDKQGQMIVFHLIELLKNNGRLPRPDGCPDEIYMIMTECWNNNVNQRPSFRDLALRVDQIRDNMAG

On to `C[C@H](C1CC1)n1cc(-c2cc(C(C)(C)O)n(C)n2)c2[nH]nc(N)c2c1=O` [Example 91, 3-amino-5-((1R)-1-cyclopropylethyl)-7-(5-(2-hydroxypropan-2-yl)-1-methyl-1H-pyrazol-3-yl)-1,5-dihydro-4H-pyrazolo[4,3-c]pyridin-4-one], for which the inhibition at 1 µM at JAK2 was found to be 88%; at JAK3, 97%; on TYK2, 99%; at JAK1, 96%.

Consider `Cn1nc(-c2cn(C(C3CC3)C3CC3)c(=O)c3c(N)n[nH]c23)cc1N1CCN2CCC[C@@H]2C1` [Example 163, 3-amino-5-(dicyclopropylmethyl)-7-(5-((8aR)-hexahydropyrrolo[1,2-a]pyrazin-2(1H)-yl)-1-methyl-1H-pyrazol-3-yl)-1,5-dihydro-4H-pyrazolo[4,3-c]pyridin-4-one], for which the inhibition at 1 µM was 100% at JAK2, 100% on JAK3, 101% on TYK2 and 100% at JAK1.

Turning to `CC(C)[C@H](C)n1cc(-c2cc(CN3CCCC3=O)n(C)n2)c2[nH]nc(N)c2c1=O` [Example 52, 3-amino-5-((2S)-3-methylbutan-2-yl)-7-(1-methyl-5-((2-oxopyrrolidin-1-yl)methyl)-1H-pyrazol-3-yl)-1,5-dihydro-4H-pyrazolo[4,3-c]pyridin-4-one], the inhibition at 1 µM came out at 99% on JAK2, 99% at JAK3, 100% on TYK2 and 96% on JAK1.

Regarding `CC1CN(c2cc(-c3cn([C@@H](C)C(C)C)c(=O)c4c(N)n[nH]c34)nn2C)CCO1` (stereo partly drawn) [Example 59, 3-amino-5-((2S)-3-methylbutan-2-yl)-7-(1-methyl-5-(2-methylmorpholin-4-yl)-1H-pyrazol-3-yl)-1,5-dihydro-4H-pyrazolo[4,3-c]pyridin-4-one], the “JAK2 enzyme inhibitory activity (%, 1 μM)” value at JAK2 worked out at 98%. For the same compound, the “JAK3 enzyme inhibitory activity (%, 1 μM)” value at JAK3 is recorded as 99%. On TYK2, the “TYK2 enzyme inhibitory activity (%, 1 μM)” value is recorded as 100%. At JAK1, the “JAK1 enzyme inhibitory activity (%, 1 μM)” value was determined as 97%.

In the case of `CC(C)[C@H](C)n1cc(-c2cc(N3CCC4(CC3)COC4)n(C)n2)c2[nH]nc(N)c2c1=O` [Example 34, 3-amino-5-((2S)-3-methylbutan-2-yl)-7-(1-methyl-5-(2-oxa-7-azaspiro[3.5]non-7-yl)-1H-pyrazol-3-yl)-1,5-dihydro-4H-pyrazolo[4,3-c]pyridin-4-one], the inhibition at 1 µM at JAK2 is 99%; on JAK3, 100%; at TYK2, 100%; at JAK1 it was 97%.

With `CC(C)[C@H](C)n1cc(-c2cc(N3CCOC3=O)n(C)n2)c2[nH]nc(N)c2c1=O` [Example 54, 3-amino-5-((2S)-3-methylbutan-2-yl)-7-(1-methyl-5-(2-oxo-1,3-oxazolidin-3-yl)-1H-pyrazol-3-yl)-1,5-dihydro-4H-pyrazolo[4,3-c]pyridin-4-one], the inhibition at 1 µM on JAK2 is 98%; on JAK3, 99%; at TYK2, 98%; at JAK1 it was 98%.

Turning to `CC(n1cc(-c2cc(N3CCOCC3)n(C)n2)c2[nH]nc(N)c2c1=O)C1(C)CC1` (centres unmarked) [Example 81, 3-amino-5-(1-(1-methylcyclopropyl)ethyl)-7-(1-methyl-5-(morpholin-4-yl)-1H-pyrazol-3-yl)-1,5-dihydro-4H-pyrazolo[4,3-c]pyridin-4-one], the inhibition at 1 µM at JAK2 worked out at 100%; at JAK3, 100%; at TYK2, 99%; at JAK1 it was 99%.

In the case of `Cn1nc(-c2cn(C3CCCC3(C)C)c(=O)c3c(N)n[nH]c23)cc1CN1CCS(=O)(=O)CC1` (centres unmarked) [Example 74, 3-amino-5-(2,2-dimethylcyclopentyl)-7-(5-((1,1-dioxidothiomorpholin-4-yl)methyl)-1-methyl-1H-pyrazol-3-yl)-1,5-dihydro-4H-pyrazolo[4,3-c]pyridin-4-one], the results for the inhibition at 1 µM on JAK2, at JAK3 and at TYK2 were 100%, 99% and 99%, respectively. In addition, the “JAK1 enzyme inhibitory activity (%, 1 μM)” value on JAK1 is given as 98%.

`COCC(=O)N1CCN(c2cc(-c3cn([C@@H](C)C(C)C)c(=O)c4c(N)n[nH]c34)nn2C)CC1` [Example 17, 3-amino-7-(5-(4-(methoxyacetyl)piperazin-1-yl)-1-methyl-1H-pyrazol-3-yl)-5-((2S)-3-methylbutan-2-yl)-1,5-dihydro-4H-pyrazolo[4,3-c]pyridin-4-one]: the inhibition at 1 µM at JAK2 was 99%; on JAK3, 99%; at TYK2, 100%; on JAK1, 97%.

Turning to `CC1CN(c2cc(-c3cn([C@@H](C)C(C)C)c(=O)c4c(N)n[nH]c34)nn2C)CCO1` (stereo partly drawn) [Example 31, 3-amino-5-((2S)-3-methylbutan-2-yl)-7-(1-methyl-5-(2-methylmorpholin-4-yl)-1H-pyrazol-3-yl)-1,5-dihydro-4H-pyrazolo[4,3-c]pyridin-4-one], the inhibition at 1 µM at JAK2 was determined as 98%; on JAK3, 99%; on TYK2, 99%; at JAK1, 97%.

For `CN1CCN(c2cc(-c3cn(-c4c(F)cccc4C#N)c(=O)c4c(N)n[nH]c34)nn2C)CC1` [Example 70, 2-(3-amino-7-(1-methyl-5-(4-methylpiperazin-1-yl)-1H-pyrazol-3-yl)-4-oxo-1,4-dihydro-5H-pyrazolo[4,3-c]pyridin-5-yl)-3-fluorobenzonitrile], the inhibition at 1 µM on JAK2 worked out at 96%; at JAK3, 99%; on TYK2, 100%; at JAK1, 97%.

Take `CC(C)[C@H](C)n1cc(-c2cc(C(F)(F)F)n(C)n2)c2[nH]nc(N)c2c1=O` [Example 42, 3-amino-5-((2S)-3-methylbutan-2-yl)-7-(1-methyl-5-(trifluoromethyl)-1H-pyrazol-3-yl)-1,5-dihydro-4H-pyrazolo[4,3-c]pyridin-4-one]: the inhibition at 1 µM at JAK2 stood at 96%; on JAK3 it was 99%; on TYK2 it was 98%; at JAK1 it was 96%.

Turning to `Cn1nc(-c2cn(C(C3CC3)C3CC3)c(=O)c3c(N)n[nH]c23)cc1C1CC1` [Example 161, 3-amino-7-(5-cyclopropyl-1-methyl-1H-pyrazol-3-yl)-5-(dicyclopropylmethyl)-1,5-dihydro-4H-pyrazolo[4,3-c]pyridin-4-one], the inhibition at 1 µM at JAK2 was determined as 99%; on JAK3, 100%; on TYK2, 100%; at JAK1 it was 100%.

With `CC(C)C(C#N)n1cc(-c2cc(N3CCOCC3)n(C)n2)c2[nH]nc(N)c2c1=O` (centres unmarked) [Example 114, 2-(3-amino-7-(1-methyl-5-(morpholin-4-yl)-1H-pyrazol-3-yl)-4-oxo-1,4-dihydro-5H-pyrazolo[4,3-c]pyridin-5-yl)-3-methylbutanenitrile], the “JAK2 enzyme inhibitory activity (%, 1 μM)” value on JAK2 (1 µM) came to 74%. In addition, at JAK3 (1 µM), the “JAK3 enzyme inhibitory activity (%, 1 μM)” value is reported as 84%. For the same compound, on TYK2, the “TYK2 enzyme inhibitory activity (%, 1 μM)” value was 95%. Further, on JAK1, the “JAK1 enzyme inhibitory activity (%, 1 μM)” value was 68%.
